# Legend:
# [1] = tested on: enveloped viral inactivation; settings: under a diverse set of experimental conditions; cited from earlier work
# [2] = tested on: XMuLV; type: cell-based, Xenotropic Murine Leukemiavirus
Compound,enveloped viral inactivation [1],XMuLV inactivation [2]
Triton X-100,greater than 4 logs,
CC(O)CO (centres unmarked) [monopropylene glycol],,not inactivate XMuLV
